The values below come from ChEMBL document CHEMBL1126639, “Centrally acting serotonergic and dopaminergic agents. 2. Synthesis and structure-activity relationships of 2,3,3a,4,9,9a-hexahydro-1H-benz[f]indole derivatives” (J Med Chem, 1993).

For assay [1], the species on record is Mus musculus. The assay can be described thus: Time of effect in the face-to-face behavioral assay in the mouse […]. The class given is functional.
Assay [2] deals with Mus musculus. Kind of assay: Time of effect in the face-to-face behavioral assay in the mouse when a dose of 5.4 micro mol/kg is administered subcutaneously. Format: functional.
Assay [3] deals with Mus musculus. Kind of assay: Time of effect in the face-to-face behavioral assay in the mouse when a dose of 54 micro mol/kg is administered subcutaneously. The class given is functional.
The target in assay [4] is T1, D(2) dopamine receptor (Homo sapiens, UniProt P14416). The assay can be described thus: Intrinsic activity from GTP shift using CHO cell membranes expressing dopamine receptor D2. The class given is functional.
T1 sequence (P14416 whole entry): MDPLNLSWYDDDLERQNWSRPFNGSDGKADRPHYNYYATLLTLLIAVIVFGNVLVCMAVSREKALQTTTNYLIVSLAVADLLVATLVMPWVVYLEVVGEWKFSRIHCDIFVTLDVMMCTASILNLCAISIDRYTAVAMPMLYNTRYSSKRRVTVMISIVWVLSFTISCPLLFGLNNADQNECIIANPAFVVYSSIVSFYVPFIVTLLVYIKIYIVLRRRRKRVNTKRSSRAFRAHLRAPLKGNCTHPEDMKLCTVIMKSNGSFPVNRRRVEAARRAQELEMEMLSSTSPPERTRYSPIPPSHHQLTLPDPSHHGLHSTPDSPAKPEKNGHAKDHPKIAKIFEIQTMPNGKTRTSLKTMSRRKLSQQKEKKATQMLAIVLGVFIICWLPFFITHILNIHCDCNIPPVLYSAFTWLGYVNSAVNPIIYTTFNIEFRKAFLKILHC
In assay [5] the target is T2, D(2) dopamine receptor (Rattus norvegicus, UniProt P61169). The assay can be described thus: Inhibitory concentration against [3H]raclopride-labeled dopamine receptor D2 in rat striatum. The class given is tissue-based.
T2 sequence (P61169 whole entry): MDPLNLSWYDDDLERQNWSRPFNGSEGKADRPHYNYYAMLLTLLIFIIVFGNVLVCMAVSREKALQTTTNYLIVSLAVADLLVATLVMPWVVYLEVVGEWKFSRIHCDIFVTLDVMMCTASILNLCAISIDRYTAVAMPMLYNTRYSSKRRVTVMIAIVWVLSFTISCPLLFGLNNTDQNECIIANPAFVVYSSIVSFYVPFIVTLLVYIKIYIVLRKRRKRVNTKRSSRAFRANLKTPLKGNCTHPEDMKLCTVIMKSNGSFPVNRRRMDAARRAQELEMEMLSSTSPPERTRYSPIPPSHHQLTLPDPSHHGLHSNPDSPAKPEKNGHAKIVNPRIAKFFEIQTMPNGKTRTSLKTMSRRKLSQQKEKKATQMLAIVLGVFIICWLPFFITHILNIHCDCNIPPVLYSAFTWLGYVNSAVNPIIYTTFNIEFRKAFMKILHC
Assay [6] concerns the target T1, D(2) dopamine receptor. The assay can be described thus: Binding affinity against [3H]U-86,170-labeled dopamine receptor D2 in cloned CHO cells. Format: cell-based.
For assay [7], the system named is Mus musculus. The assay can be described thus: Antagonism of apomorphine for 0-10 minutes in reserpinized mice when a dose of 0.4 micro mol/kg is administered intraperitoneally. The class given is functional.
Assay [8] relates to Mus musculus. The assay can be described thus: Antagonism of apomorphine for 0-10 minutes in reserpinized mice when a dose of 3.6 micro mol/kg is administered intraperitoneally. The class given is functional.
Assay [9] has as its system Mus musculus. The assay can be described thus: Antagonism of apomorphine for 0-10 minutes in reserpinized mice when a dose of 36 micro mol/kg is administered intraperitoneally. The class given is functional.
Assay [10] relates to Mus musculus. The assay can be described thus: Antagonism of apomorphine for 10-20 minutes in reserpinized mice when a dose of 0.4 micro mol/kg is administered intraperitoneally. Format: functional.
Assay [11] deals with Mus musculus. Kind of assay: Antagonism of apomorphine for 10-20 minutes in reserpinized mice when a dose of 3.6 micro mol/kg is administered intraperitoneally. Format: functional.
In assay [12] the test system is Mus musculus. The assay can be described thus: Ability to stimulate dopaminergic systems by effect on locomotor activity in reserpinized mice when a dose of 3.6 micro mol/kg is administered intraperitoneally. Format: functional.
Assay [13] has as its system Mus musculus. The assay can be described thus: Ability to stimulate dopaminergic systems by effect on locomotor activity in reserpinized mice when a dose of 36 micro mol/kg is administered intraperitoneally. The class given is functional.
Assay [14] relates to Mus musculus. The assay can be described thus: Ability to stimulate dopaminergic systems by effect on locomotor activity in reserpinized mice when a dose of 0.4 micro mol/kg is administered intraperitoneally. Format: functional.
Assay [15] deals with Mus musculus. Kind of assay: Antagonism of apomorphine in reserpinized mice when a dose of 36 micro mol/kg is administered intraperitoneally. Format: functional.
Assay [16] deals with Mus musculus. The assay can be described thus: Antagonism of apomorphine for 10-20 minutes in reserpinized mice when a dose of 36 micro mol/kg is administered intraperitoneally. Format: functional.
Assay [17] deals with Mus musculus. The assay can be described thus: Antagonism of apomorphine in reserpinized mice when a dose of 0.4 micro mol/kg is administered intraperitoneally. Format: functional.
In assay [18] the test system is Mus musculus. The assay can be described thus: Antagonism of apomorphine in reserpinized mice when a dose of 3.6 micro mol/kg is administered intraperitoneally. Format: functional.
For assay [19], the target named is T2, D(2) dopamine receptor. The assay can be described thus: Inhibitory concentration against [3H]raclopride-labeled dopamine receptor D2 in rat striatum was estimated from single point experiment. compound was run at 1 uM.
Assay [20] addresses T2, D(2) dopamine receptor. Kind of assay: Compound was evaluated for the binding affinity against [3H]raclopride-labeled dopamine receptor D2 in rat striatum. The class given is tissue-based.
For assay [21], the system named is Mus musculus. Kind of assay: Effective dose on hypothermia in mouse when administered subcutaneously. Format: functional. As to conditions: Mus musculus, sc; read-out: ED50.
Assay [22] deals with Mus musculus. Kind of assay: Effective dose on hypothermia in mouse when administered through peroral route. The class given is functional. The settings on record: Mus musculus, po; read-out: ED50.
Assay [23] relates to Mus musculus. The assay can be described thus: Time of effect in the face-to-face behavioral assay in the mouse when a dose of 34 micro mol/kg is administered perorally. The class given is functional.
The test system of assay [24] is Mus musculus. Kind of assay: Time of effect in the face-to-face behavioral assay in the mouse when a dose of 0.0 micro mol/kg is administered perorally. Format: functional.
For assay [25], the system named is Mus musculus. Kind of assay: Time of effect in the face-to-face behavioral assay in the mouse when a dose of 0.3 micro mol/kg is administered perorally. The class given is functional.
Assay [26] concerns Mus musculus. The assay can be described thus: Time of effect in the isolation-induced aggression behavioral assay in the mouse when a dose of 10 micro mol/kg is administered perorally. Format: functional.
For assay [27], the system named is Mus musculus. Kind of assay: Maximum decrease in temperature when compound is administered subcutaneously. The class given is functional.
Assay [28] has as its system Mus musculus. The assay can be described thus: Maximum decrease in temperature when compound is administered through peroral route. Format: functional.
Assay [29] relates to Mus musculus. Kind of assay: Time of effect in the isolation-induced aggression behavioral assay in the mouse when a dose of 3.4 micro mol/kg is administered perorally. Format: functional.
Assay [30] relates to Mus musculus. The assay can be described thus: Time of effect in the face-to-face behavioral assay in the mouse when a dose of 3.4 micro mol/kg is administered perorally. Format: functional.
Assay [31] deals with T2, D(2) dopamine receptor. Kind of assay: Binding affinity for [3H]raclopride-labeled dopamine receptor D2 in rat striatum. The class given is tissue-based.
For assay [32], the system named is Rattus norvegicus. The assay can be described thus: Effect on the synthesis rates of dopamine (DOPA accumulation) in the rat ventral limbic brain region at 43.2 uM/kg. Format: functional, Limbic system.
In assay [33] the test system is Rattus norvegicus. The assay can be described thus: Effect on the synthesis rates of serotonin (5-HTP accumulation) in the rat ventral limbic brain region 43.2 umol/kg. The class given is functional, Limbic system.
For assay [34], the system named is Rattus norvegicus. The assay can be described thus: Inhibition of firing rates of dopaminergic neurons in the substantia nigra pars compacta by intravenous injection in rats. The class given is functional.
Assay [35] relates to Mus musculus. The assay can be described thus: Antagonism of apomorphine for 0-10 minutes in reserpinized mice when a dose of 4.3 micro mol/kg is administered intraperitoneally. Format: functional.
The subject of assay [36] is Mus musculus. The assay can be described thus: Antagonism of apomorphine for 0-10 minutes in reserpinized mice when a dose of 43 micro mol/kg is administered intraperitoneally. Format: functional.
For assay [37], the system named is Mus musculus. Kind of assay: Ability to stimulate dopaminergic systems by effect on locomotor activity in reserpinized mice when a dose of 4.3 micro mol/kg is administered intraperitoneally. Format: functional.
The subject of assay [38] is Mus musculus. The assay can be described thus: Ability to stimulate dopaminergic systems by effect on locomotor activity in reserpinized mice when a dose of 43 micro mol/kg is administered intraperitoneally. The class given is functional.
Assay [39] has as its system Mus musculus. The assay can be described thus: Antagonism of apomorphine in reserpinized mice when a dose of 4.3 micro mol/kg is administered intraperitoneally. The class given is functional.
Assay [40] relates to Mus musculus. The assay can be described thus: Antagonism of apomorphine in reserpinized mice when a dose of 43 micro mol/kg is administered intraperitoneally. Format: functional.
The test system of assay [41] is Mus musculus. The assay can be described thus: Antagonism of apomorphine for 10-20 minutes in reserpinized mice when a dose of 4.3 micro mol/kg is administered intraperitoneally. The class given is functional.
Assay [42] deals with Mus musculus. The assay can be described thus: Antagonism of apomorphine for 10-20 minutes in reserpinized mice when a dose of 43 micro mol/kg is administered intraperitoneally. The class given is functional.

Structures are written as SMILES. Bounds are passed on as bounds.

Regarding `CC(N)Cc1ccccc1.O=S(=O)(O)O` (centres undefined) [AMPHETAMINE SULFATE], the Time in [1] was found to be 2.6 s; in assay [2], 2.4 s; in assay [3], 2.9 s.

On to `C=CCN1CC[C@@H]2Cc3c(O)cccc3C[C@H]21` (racemic), for which the Intrinsic activity in assay [4] stood at 91%.

A word on the IC50: it is the point on the concentration scale where inhibition reaches its midpoint. Take `CCCN1CC[C@H]2Cc3c(cccc3OC)C[C@@H]21`: the IC50 in assay [5] was over 1000 nM.

In [5], `CCCN1CC[C@@H]2Cc3c(cccc3OC)C[C@@H]21` (racemic) returned a 50% inhibitory concentration (IC50) of over 1000 nM.

As to `CCCN1CC[C@@H]2Cc3c(O)cccc3C[C@H]21` (racemic) [listing 1 of 2 here], the Intrinsic activity in assay [4] came to 79%.

By Ki is commonly meant the dissociation constant of the complex between target and ligand, obtained from inhibition or displacement. Lower therefore signals higher affinity. In assay [6], `CCCN1CC[C@@H]2Cc3c(cccc3OC)C[C@H]21` returned an inhibition constant Ki of 75 nM. In assay [5], the IC50 was over 1000 nM. In addition, the Locomotor activity is 20 in assay [7]; 18 in [8]; 21 in assay [9]; 30 in assay [10]; 12 in assay [11]; 851 in assay [12]. Further, the Locomotor activity is listed as 308 in assay [13]; 581 in [14]; 14 in assay [15]; 20 in assay [16]; 86 in [17]; 72 in assay [18].

Turning to `C=CCN1CC[C@@H]2Cc3cccc(OC)c3C[C@@H]21` (racemic), the IC50 in [19] was over 1000 nM.

The term ED50 denotes the dose at which the effect has come halfway, by size or by number of responders. For `COc1cccc2c1C[C@H]1CCN(CC3CC3)[C@@H]1C2` (racemic), the Ki in assay [20] is over 1000 nM. For the same compound, the median effective dose (ED50) in assay [21] stood at 19 µmol/kg; in [22], 25 µmol/kg. Moreover, the Time is 1.5 s in assay [23]; 1 s in assay [24]; 0.9 s in assay [25]; 177 s in [26]; 58 s in assay [29]; 1.6 s in [30]. Moreover, the Max temperature decrease in assay [27] worked out at 7; in assay [28], 6.2.

On to `CCCN1CC[C@@H]2Cc3c(O)cccc3C[C@H]21` (racemic) [listing 2 of 2 here], for which the Ki came to 2.4 nM in [6] and 17 nM in [31]. Besides, the results for the Control in assay [32] and in [33] were -47% and -4%, respectively. The same compound yielded an ED50 in [34] of 0.003 µmol/kg. Moreover, the Locomotor activity in [7] is 41; in [35], 46; in assay [36], 29; in [10], 71; in assay [37], 912; in assay [38], 1539. Further, the Locomotor activity in assay [14] is recorded as 423; in assay [39], 69; in [40], 114; in assay [41], 38; in assay [42], 23; in [17], 98.

Regarding `COc1cccc2c1C[C@H]1CCN[C@@H]1C2` (racemic), the IC50 in [5] is over 1000 nM. Moreover, the ED50 in [21] is 1.7 µmol/kg; in assay [22], over 125 µmol/kg. The Max temperature decrease in assay [27] is 6.2.
